The Ki is a measure of affinity in units of concentration, obtained from inhibition or displacement.

Experimental findings from BindingDB's records for doi:10.7270/Q2RB7317 (Nmmlsc, 2009) are described below.

The structures appear in SMILES notation.

The assay concerns the target Ras-related C3 botulinum toxin substrate 1 (Mus musculus, UniProt P63001). The assay can be described thus: analog inhibition of wildtype Rac1 nucleotide loading – biochemical, additional analogs, multiplex bead flow cytometry, SAR follow-up (AID 2040). Background: In flow cytometry, cells or beads pass a laser one at a time.
On to `O=C1Nc2c(F)cccc2C1=C1Nc2ccccc2C1=O`, for which the Ki came out at 3230 nM.

In turn, `O=C1NC(=O)/C(=C2/C(=O)Nc3ccccc32)N1` came in with a Ki of 250 nM.

Regarding `O=C1Nc2ccc(Br)cc2C1=C1Nc2ccccc2C1=O`, the Ki came out at 1510 nM.

Regarding `O=C1NC(=S)N/C1=C1\C(=O)Nc2ccccc21` [(3Z)-3-(5-oxo-2-sulfanylideneimidazolidin-4-ylidene)-1H-indol-2-one], the Ki turned out to be 160 nM.
